Experimental data: US20040253206A1 (priority 1999, published 2004)
Where two headings read alike, the source gives them in different places.

Legend:
[1] = test system: LCC6-MDR1 PgP transfected breast carcinoma cell line; experiment: cells; conditions: for Resistance ratio (IC50 resistant cell line/IC50 parental line) LCC6-MDR1: LCC6-MDR1 versus LCC6-WT, range over experiments
From the text: (§1) HT-1080 and HT-1080/DR4 (MRP/LRP positive) fibrosarcoma cell lines (1,2) were obtained from Dr. Y. Rustum, Roswell Park Cancer Institute, Buffalo, N.Y. The A121 ovarian cell line (3) was provided by Dr. Kent Crickard, Buffalo General Hospital, Buffalo, N.Y. The MDA435/LCC6-WT and MDR^1 transfected cell lines (4) were provided by Dr. R. Clarke, Lombardi Cancer Center, Georgetown University School of Medicine. Cell lines were propagated as monolayers in RPMI-1640 containing 5% FCS, 5% NuSerum IV, 20 mM HEPES, 2 mM L-glutamine at 37° C. in a 5% CO2 humidified atmosphere.
(§2) Paclitaxel, which was used for comparison purposes and is not a compound of the present invention, was provided by Dr. I. Ojima, SUNY at Stonybrook. […] Paclitaxel was solubilized in 100% DMSO. […] For the second experiment (Experiment 2), less concentrated stock solutions (0.4 mM) of each compound were prepared in sterile H2O acidified with 10% 1 N HCl. […] All compounds were further diluted in RPMI-1640 containing 10 mM HEPES.
(§3) Assessment of cell growth inhibition was determined in 96 well microtiter plates according to the method of Skehan et al., “New Colorimetric Cytotoxicity Assay for Anticancer-Drug Screening, Articles 82(13):1107-1112 (1990). Briefly, cells were plated with 400-1800 cells/well in 96 well plates and incubated at 37° C. 15-18 hr prior to drug addition to allow for cell attachment. Each cell line was exposed to 12 concentrations of compound (a 6 log range), 5 replicate data points per compound concentration. […] Assays were terminated with 100 μl of ice-cold 50% TCA. After 1 hr at 4° C., plates were washed 5 times with tap water to remove TCA, low-molecular-weight metabolites and serum proteins. 50 μl of 0.4% sulforhodamine B (SRB) was added to each well. Following a five minute incubation at room temperature, plates were rinsed 5 times with 0.1% acetic acid and air dried. Bound dye was solubilized with 10 mM Tris Base (pH 10.5) for 5 min on a gyratory shaker. Optical density was measured at 570 nm.
(§4) Data were fit with the Sigmoid-Emax concentration-effect model (N. H. G. Holford and L. B. Scheiner, “Understanding the dose-effect relationship: Clinical applications of pharmacokinetic-pharmacodynamic models,” Clin. Pharmacokin. 6:429-453 (1981)) with nonlinear regression, weighted by the reciprocal of the square of the predicted response. The fitting software was developed at RPCI with Microsoft FORTRAN, and uses Marquardt algorithm (D. W. Marquardt, “An algorithm for least squares estimation of nonlinear parameters,” J. Soc. Ind. Appl. Math. 11:431-441) as adapted by Nash (J. C. Nash, Compact Numerical Method for Computers: Linear Algebra and Function Minimization, New York: John Wiley & Sons, 1979) for the nonlinear regression.

[2] = test system: HT-1080-DR4 doxorubicin selected MDR (MRP/LRP phenotype) fibrosarcoma cell line; experiment: Tumor cell growth inhibition (SRB), HT-1080-DR4; type: cell-based, human; conditions: for Resistance ratio (IC50 resistant cell line/IC50 parental line) HT1080/DR4: HT1080/DR4 versus HT-1080, range over experiments; for IC50: 72-96 h, read-out: IC50 (±S.E.) HT-1080-DR4
From the text: as §1, §2, §3, §4

[3] = test system: A121 ovarian carcinoma cell line; experiment: Tumor cell growth inhibition (SRB), A121; type: cell-based, human; conditions: 72-96 h, read-out: IC50 (±S.E.) A121
From the text: as §1, §2, §3, §4

[4] = test system: LCC6-WT breast carcinoma cell line; experiment: Tumor cell growth inhibition (SRB), LCC6-WT; type: cell-based, human; conditions: read-out: IC50 (±S.E.) LCC6-WT
From the text: as §1, §2, §3, §4

[5] = test system: HT-1080 fibrosarcoma cell line; experiment: Tumor cell growth inhibition (SRB), HT-1080; type: cell-based, human; conditions: 72-96 h, read-out: IC50 (±S.E.) HT-1080
From the text: as §1, §2, §3, §4

[6] = Chemical hydrolysis in wet acetonitrile; type: physicochemical; conditions: ca. 1 mg/mL in wet acetonitrile, 26 days at room temperature
Description: A sample of solid acetate (Compound 4) was dissolved (ca. 1 mg/mL) in wet acetonitrile (nonanhydrous due to exposure to humid air).

[7] = Storage stability of trifluoroacetate product fraction solutions (analytical HPLC); type: physicochemical
[8] = Hande 1998; cited from earlier work
[9] = Experiment 1, TX-001/TX-002 from 4.0 mM stocks
[10] = Experiment 2, TX-001/TX-002 from 0.4 mM stocks
[11] = 4.0 mM stock solutions that had been stored at 4° C. for 7 days
[12] = Experiment 1, TX-001/TX-002 from 4.0 mM stocks, 72-96 h
[13] = Experiment 2, TX-001/TX-002 from 0.4 mM stocks, 72-96 h

Row | Compound | Resistance ratio (IC50 resistant cell line/IC50 parental line) LCC6-MDR1 [1] | Resistance ratio (IC50 resistant cell line/IC50 parental line) HT1080/DR4 [2] | IC50 [2, 9] [nM] | IC50 [2, 10] [nM] | IC50 [3, 9] [nM] | IC50 [3, 10] [nM] | IC50 [4, 11] [nM] | IC50 [4, 12] [nM] | IC50 [4, 13] [nM] | IC50 [5, 9] [nM] | IC50 [5, 10] [nM] | other results
1 | CC(=O)O[C@H]1C(=O)[C@@]2(C)[C@H]([C@H](OC(=O)c3ccccc3)[C@]3(O)C[C@H](OC(=O)[C@H](O)[C@@H](NC(=O)c4ccccc4)c4ccccc4)C(C)=C1C3(C)C)[C@]1(OC(C)=O)CO[C@@H]1C[C@@H]2O [Paclitaxel, reference compound] | 65-92 fold | 1.1-1.4 fold | – | – | – | – | – | – | – | – | – | IC50 ([1]; Homo sapiens, LCC6MDR, read-out: IC50 (±S.E.) LCC6-MDR, Experiment 1, TX-001/TX-002 from 4.0 mM stocks, 72-96 h): 434 ± 28 nM; IC50 ([1]; Homo sapiens, LCC6MDR, read-out: IC50 (±S.E.) LCC6-MDR, Experiment 2, TX-001/TX-002 from 0.4 mM stocks, 72-96 h): 391 ± 52 nM; IC50 ([2]; Homo sapiens, Experiment 1, TX-001/TX-002 from 4.0 mM stocks): 4.9 ± 0.4 nM; IC50 ([2]; Homo sapiens, Experiment 2, TX-001/TX-002 from 0.4 mM stocks): 7.7 ± 0.1 nM; IC50 ([3]; Homo sapiens, A121, Experiment 1, TX-001/TX-002 from 4.0 mM stocks): 11 ± 0.5 nM; IC50 ([3]; Homo sapiens, A121, Experiment 2, TX-001/TX-002 from 0.4 mM stocks): 14 ± 1.3 nM; IC50 ([4]; Homo sapiens, Breast carcinoma cell, Experiment 1, TX-001/TX-002 from 4.0 mM stocks, 72-96 h): 4.7 ± 0.5 nM; IC50 ([4]; Homo sapiens, Breast carcinoma cell, Experiment 2, TX-001/TX-002 from 0.4 mM stocks, 72-96 h): 6 ± 2 nM; IC50 ([5]; Homo sapiens, HT-1080, Experiment 1, TX-001/TX-002 from 4.0 mM stocks): 4.5 ± 0.2 nM; IC50 ([5]; Homo sapiens, HT-1080, Experiment 2, TX-001/TX-002 from 0.4 mM stocks): 5.7 ± 0.3 nM
2 | CC(=O)O.CC(=O)OC1C(=O)C2(C)C(O)CC3OCC3(OC(C)=O)C2C(OC(=O)c2ccccc2)C2(O)CC(OC(=O)C(OC(=O)CCC(=O)NCCOCCOCCN)C(NC(=O)c3ccccc3)c3ccccc3)C(C)=C1C2(C)C (stereo not drawn) [TX-001, 2′-Succinamidyl-PEG2-amine-paclitaxel Acetate] | – | – | 8.9 ± 0.4 | 36 ± 1.5 | 13 ± 0.5 | 37 ± 1.2 | 2.7 | 4.9 ± 0.5 | 13 ± 0.5 | 4.5 ± 0.4 | 19 ± 0.7 | chemical hydrolysis behavior [6]: converted quantitatively into paclitaxel
3 | 2′-Succinamidyl-PEG2-amine-paclitaxel trifluoroacetate [Compound 3] | – | – | – | – | – | – | – | – | – | – | – | average purity of product fraction solutions after storage ([7]; after storage at 8° C. for 16 days): 97.4%; average purity of product fraction solutions, initial ([7]; preparative HPLC fraction solutions, before storage): 98.8%
4 | COc1cc([C@@H]2c3cc4c(cc3[C@@H](O[C@@H]3O[C@@H]5CO[C@@H](C)O[C@H]5[C@H](O)[C@H]3O)[C@H]3COC(=O)[C@H]23)OCO4)cc(OC)c1O [Etoposide] | – | – | – | – | – | – | – | – | – | – | – | solubility in water [8]: nearly insoluble in water
5 | CC(=O)O.CC(=O)OC1C(=O)C2(C)C(O)CC3OCC3(OC(C)=O)C2C(OC(=O)c2ccccc2)C2(O)CC(OC(=O)C(OC(=O)CCCC(=O)NCCOCCOCCN)C(NC(=O)c3ccccc3)c3ccccc3)C(C)=C1C2(C)C (stereo not drawn) [TX-002, 2′-Glutaramidyl-PEG2-amine-paclitaxel acetate] | 47-60 fold | 1.1-1.5 fold | 32 ± 1.5 | 54 ± 5.3 | 48 ± 3 | 171 ± 8.8 | 16 | 18 ± 1.1 | 38 ± 4.6 | 22 ± 0.9 | 49 ± 6.5 | IC50 ([1]; read-out: IC50 (±S.E.) LCC6-MDR, 4.0 mM stock solutions that had been stored at 4° C. for 7 days): 879 nM; IC50 ([1]; read-out: IC50 (±S.E.) LCC6-MDR, Experiment 1, TX-001/TX-002 from 4.0 mM stocks, 72-96 h): 1070 ± 45 nM; IC50 ([1]; read-out: IC50 (±S.E.) LCC6-MDR, Experiment 2, TX-001/TX-002 from 0.4 mM stocks, 72-96 h): 1800 ± 168 nM
